{"source": "paper PMC11562016", "about": "(Structure (London, England : 1993), 2024)", "key": {"[1]": {"target": "human α1β GlyR (α1:β, α1wtβwt) (Homo sapiens, UniProt P23415+P48167)", "details": "for τdes: desensitization"}, "[2]": {"target": "α1:βY231A GlyR (Homo sapiens, UniProt P23415+P48167, Y253A)"}, "[3]": {"target": "α1:βR86TY231A GlyR (Homo sapiens, UniProt P23415+P48167, R108T/Y253A)"}, "[4]": {"target": "α1:α1-β-α1 FYF (α1: α1F207A-βY231A-α1F207A) GlyR (Homo sapiens, UniProt P23415+P48167, F235A/Y253A)"}, "[5]": {"target": "α1:α1-β-α1 RFYF (α1: α1R65DF207A-βY231A-α1F207A) GlyR (Homo sapiens, UniProt P23415+P48167, F235A/R93D/Y253A)"}, "[6]": {"target": "α1F207A:β GlyR (Homo sapiens, UniProt P23415+P48167, F235A)"}, "[7]": {"target": "α1F207A:α1-β GlyR (Homo sapiens, UniProt P23415+P48167, F235A)"}, "[8]": {"target": "α1F207A:α1-β-α1 GlyR (Homo sapiens, UniProt P23415+P48167, F235A)"}, "[9]": {"test_system": "α1sβsg GlyR", "details": "for τdes: desensitization"}, "[10]": {"test_system": "α1β GlyR"}, "[11]": {"test_system": "α1β GlyR with mutation of a single α-α or α-β site", "details": "Supplementary Fig.S4"}, "[12]": {"details": "glycine dose-response, Hill fit"}}, "note": "Values joined by “and” are separate entries in the source; they are usually repeats but may differ in a detail not shown here. Equal entries are not always repeated. Where two headings read alike, the source gives them in different places."}
{"smiles": "NCC(=O)O", "note": "[glycine, Glycine]", "values": [{"measurement": "current remaining after desensitization", "setting": "[1]; 40 μM glycine", "value": "~ 66%"}, {"measurement": "τclose", "setting": "[1]; 40 μM glycine", "value": "0.3 ± 0.1", "unit": "s"}, {"measurement": "τopen", "setting": "[1]; 40 μM glycine", "value": "0.6 ± 0.3", "unit": "s"}, {"measurement": "τdes", "setting": "[1]; 40 μM glycine", "value": "4.8 ± 0.9", "unit": "s"}, {"measurement": "τclose", "setting": "[1]; 100 μM glycine", "value": "0.3 ± 0.1", "unit": "s"}, {"measurement": "τopen", "setting": "[1]; 100 μM glycine", "value": "0.18 ± 0.03", "unit": "s"}, {"measurement": "τdes", "setting": "[1]; 100 μM glycine", "value": "7.5 ± 1.2", "unit": "s"}, {"measurement": "τclose", "setting": "[1]; 200 μM glycine", "value": "1.1 ± 0.1", "unit": "s"}, {"measurement": "τopen", "setting": "[1]; 200 μM glycine", "value": "0.07 ± 0.01", "unit": "s"}, {"measurement": "τdes", "setting": "[1]; 200 μM glycine", "value": "7.8 ± 0.6", "unit": "s"}, {"measurement": "current remaining after desensitization", "setting": "[1]; 1 mM glycine", "value": "~ 18%"}, {"measurement": "τclose", "setting": "[1]; 1000 μM glycine", "value": "1.0 ± 0.1", "unit": "s"}, {"measurement": "τopen", "setting": "[1]; 1000 μM glycine", "value": "0.06 ± 0.01", "unit": "s"}, {"measurement": "τdes", "setting": "[1]; 1000 μM glycine", "value": "6.5 ± 0.4", "unit": "s"}, {"measurement": "increase in desensitization recovery time constant", "setting": "[1]; 1 mM vs 40 μM glycine", "value": "~ 7 fold"}, {"measurement": "increase in the extent of desensitization", "setting": "[1]; 1 mM vs 40 μM glycine", "value": "~ 4 fold"}, {"measurement": "current remaining after desensitization (residual activity)", "setting": "[1]; 10 mM glycine", "value": "~ 3%"}, {"measurement": "desensitization time constants", "setting": "[1]; across glycine concentrations 40 μM to 10 mM", "value": "5 to 8", "unit": "s"}, {"measurement": "τclose", "setting": "[1]; beyond 200 μM glycine", "value": "~ 1.1 s"}, {"measurement": "nh (Hill coefficent)", "setting": "[1]; [12]", "value": "2.5 ± 0.4"}, {"measurement": "minimum τopen", "setting": "[1]; increased glycine concentrations, likely limited by instrument", "value": 60, "unit": "ms"}, {"measurement": "Imax, maximum glycine-induced current amplitude", "setting": "[1]; whole-cell, -70 mV", "value": "7.0 ± 0.9", "unit": "nA"}, {"measurement": "Imax, maximum glycine-induced current amplitude", "setting": "[2]", "value": "5.0 ± 0.7", "unit": "nA"}, {"measurement": "nh (Hill coefficent)", "setting": "[2]; [12]", "value": "3.1 ± 0.5"}, {"measurement": "Imax, maximum glycine-induced current amplitude", "setting": "[3]", "value": "7.1 ± 0.5", "unit": "nA"}, {"measurement": "nh (Hill coefficent)", "setting": "[3]; [12]", "value": "2.1 ± 0.3"}, {"measurement": "Imax, maximum glycine-induced current amplitude", "setting": "[4]", "value": "4.5 ± 0.7", "unit": "nA"}, {"measurement": "nh (Hill coefficent)", "setting": "[4]; [12]", "value": "2.2 ± 0.4"}, {"measurement": "Imax, maximum glycine-induced current amplitude", "setting": "[5]", "value": "0.8 ± 0.3", "unit": "nA"}, {"measurement": "nh (Hill coefficent)", "setting": "[5]; [12]", "value": "1.6 ± 2.0"}, {"measurement": "channel activation by glycine", "setting": "[5]; only 1 intact glycine site", "value": "inactive"}, {"measurement": "Imax, maximum glycine-induced current amplitude", "setting": "[6]", "value": "0.8 ± 0.2", "unit": "nA"}, {"measurement": "nh (Hill coefficent)", "setting": "[6]; [12]", "value": "1.4 ± 1.5"}, {"measurement": "Imax, maximum glycine-induced current amplitude", "setting": "[7]", "value": "0.2 ± 0.1", "unit": "nA"}, {"measurement": "nh (Hill coefficent)", "setting": "[7]; [12]", "value": "1.0 ± 0.6"}, {"measurement": "Imax, maximum glycine-induced current amplitude", "setting": "[8]", "value": "0.5 ± 0.1", "unit": "nA"}, {"measurement": "nh (Hill coefficent)", "setting": "[8]; [12]", "value": "1.8 ± 3.3"}, {"measurement": "I des / Imax", "setting": "[9]; 40 μM glycine", "value": "0.74 ± 0.05"}, {"measurement": "τclose", "setting": "[9]; 40 μM glycine", "value": "0.4 ± 0.1", "unit": "s"}, {"measurement": "τopen", "setting": "[9]; 40 μM glycine", "value": "0.9 ± 0.1", "unit": "s"}, {"measurement": "τdes", "setting": "[9]; 40 μM glycine", "value": "5.4 ± 1.2", "unit": "s"}, {"measurement": "I des / Imax", "setting": "[9]; 100 μM glycine", "value": "0.38 ± 0.05"}, {"measurement": "τclose", "setting": "[9]; 100 μM glycine", "value": "0.5 ± 0.1", "unit": "s"}, {"measurement": "τopen", "setting": "[9]; 100 μM glycine", "value": "0.5 ± 0.1", "unit": "s"}, {"measurement": "τdes", "setting": "[9]; 100 μM glycine", "value": "7.0 ± 1.3", "unit": "s"}, {"measurement": "I des / Imax", "setting": "[9]; 1000 μM glycine", "value": "0.17 ± 0.03"}, {"measurement": "τclose", "setting": "[9]; 1000 μM glycine", "value": "0.9 ± 0.3", "unit": "s"}, {"measurement": "τopen", "setting": "[9]; 1000 μM glycine", "value": "0.06 ± 0.01", "unit": "s"}, {"measurement": "τdes", "setting": "[9]; 1000 μM glycine", "value": "8.8 ± 1.8", "unit": "s"}, {"measurement": "EC50", "setting": "[9]; glycine response normalized to 1 mM glycine", "value": "~100", "unit": "µM"}, {"measurement": "desensitization forward rate constant kdes", "setting": "[10]; model parameter", "value": "0.18 ± 0.05 and 0.18"}, {"measurement": "desensitization reverse rate constant kdes_r", "setting": "[10]; model parameter", "value": "0.007 ± 0.002 and 0.007"}, {"measurement": "rate scaler after desensitization ndes", "setting": "[10]; model parameter", "value": "0.006 ± 0.007 and 0.006"}, {"measurement": "dissociation rate constants kdα = kdβ", "setting": "[10]; model parameter matched to full recording traces", "value": "10 ± 2"}, {"measurement": "EC50", "setting": "[11]", "value": "~140", "unit": "µM"}]}
